# Assays:
# Format in all cases: cell-based
# Streptococcus pyogenes = assay: MIC, agar with 5% defibrinated horse blood, streptococci; conditions: 10^4 CFU/spot, 37° C., 5% carbon dioxide, 48 hours
# Experimental: (§1) The following results were obtained on a standard in-vitro test system. The activity is described in terms of the minimum inhibitory concentration (MIC) determined by the agar-dilution technique with an inoculum size of 10^4 CFU/spot. Typically, compounds are active in the range 0.01 to 256 μg/ml.
# (§2) Streptococci and enterococci were tested on agar supplemented with 5% defibrinated horse blood, an inoculum of 10^4 CFU/spot and an incubation temperature of 37° C. in an atmosphere of 5% carbon dioxide for 48 hours—blood is required for the growth of some of the test organisms. Fastidious Gram negative organisms were tested in Mueller-Hinton broth, supplemented with hemin and NAD, grown aerobically for 24 hours at 37° C., and with an innoculum of 5×10^4 CFU/well.
# Streptococcus pneumoniae = assay: as above; conditions: 10^4 CFU/spot, 37° C., 5% carbon dioxide, 48 hours
# Experimental: as §1, §2
# Moraxella catarrhalis = assay: MIC, Mueller-Hinton broth with hemin and NAD, fastidious Gram negative organisms; conditions: aerobic, 24 hours, 37° C., 5×10^4 CFU/well
# Experimental: as §1, §2
# Haemophilus influenzae = assay: as above; conditions: aerobic, 24 hours, 37° C., 5×10^4 CFU/well
# Experimental: as §1, §2
# [1] = system: Staphylococcus aureus MRQR (methicillin resistant and quinolone resistant); assay: MIC, agar dilution, staphylococci; conditions: inoculum 10^4 CFU/spot, 37° C., 24 hours
# Experimental: as §1
# (§3) Staphylococci were tested on agar, using an inoculum of 10^4 CFU/spot and an incubation temperature of 37° C. for 24 hours—standard test conditions for the expression of methicillin resistance.
# [2] = system: Staphylococcus aureus MSQS (methicillin sensitive and quinolone sensitive); assay: MIC, agar dilution, staphylococci; conditions: inoculum 10^4 CFU/spot, 37° C., 24 hours
# Experimental: as §1, §3
structure (smiles),measurement,setting,value
"N#Cc1nnc(-c2ccc(N3C[C@H](Cn4ccnn4)OC3=O)cc2F)s1 [Example 1, (5R)-3-(3-Fluoro-4-(5-cyano-1,3,4-thiadiazol-2-yl)phenyl)-5-(1H-1,2,3-triazol-1-ylmethyl)-1,3-oxazolidin-2-one]",MIC,Streptococcus pyogenes,0.125 mg/L
same,MIC,Streptococcus pneumoniae,0.125 mg/L
same,MIC,Moraxella catarrhalis,0.5 mg/L
same,MIC,Haemophilus influenzae,2 mg/L
same,MIC,[1],0.25 mg/L
same,MIC,[2],0.125 mg/L

# — US20050043374A1, “Aryl substituted oxazolidinones with antibacterial activity” (priority 2001, published 2005)
